# Read-outs that look alike come from different tables or passages of the source.
# Legend:
# [1] = system: Staphylococcus aureus strain (ATCC-25923); assay: Proliferation suppression of Staphylococcus aureus, MIC by broth dilution; assay type: cell-based; design: key to MIC of S. aureus: +: Proliferation of S. aureus,; −: Antibacterial effect of S. aureus; conditions: 10^4 CFU/mL
# [2] = system: Influenza virus H1N1 subtype (A/WSN/33); assay type: cell-based
# MDCK cells [3] = system: MDCK cells
# [4] = system: H5N2 avian influenza virus (TW1209/04(H5N2)AIV); assay type: cell-based
# MDCK cells [5] = system: MDCK cells; remark: listed apart in the source
# [6] = system: H5N1 avian influenza virus (TW1209/03(H5N1)AIV); assay type: cell-based
# [7] = system: H5N2 avian influenza virus (TW1209/04(H5N2)AIV); assay type: cell-based; remark: listed apart in the source
# [8] = system: avian influenza virus (AIV) subtype H5N2 (TW1209/04(H5N2)AIV) virions
# MDCK cells [9] = system: MDCK cells; remark: listed apart in the source
# [10] = system: Enterovirus type 71 (EV-71) virions; assay: AFM of Enterovirus type 71 virions treated with the compound; conditions: for maximum height of virus particles (AFM cursor profile): 5-10 minutes, native virion 75.23 nm; for calculated RMS height of treated particles: over 60 virus particles
# [11] = system: H5N1 avian influenza virus (TW1209/03(H5N1)AIV); assay type: cell-based; remark: listed apart in the source
compound,measurement,setting,value
O=C(O)C(CCCCCCCCCCS)C(=O)O [2-(10-mercaptodecyl)-propanedioic acid],MIC,"[1]; Staphylococcus aureus, ATCC25923, broth dilution method, read-out: final concentration suppressing proliferation of S. aureus (MIC)",20 µg/mL
same,MIC of S. aureus,[1]; final concentration 5 ppm,+
same,MIC of S. aureus,[1]; final concentration 10 ppm,+
same,MIC of S. aureus,[1]; final concentration 20 ppm,−
same,MIC of S. aureus,[1]; final concentration 50 ppm,−
same,MIC of S. aureus,[1]; final concentration 100 ppm,−
same,MIC of S. aureus,[1]; final concentration 200 ppm,−
same,concentration protecting cells against infection by influenza virus H1N1 subtype (as low as),[2],30 ppm
same,"CPE, H1N1 influenza virus treated with compound",[2]; 3 ppm,+
same,"CPE, H1N1 influenza virus treated with compound",[2]; 30 ppm,−
same,"CPE, H1N1 influenza virus treated with compound",[2]; 100 ppm,−
same,"CPE, H1N1 influenza virus treated with compound",[2]; 300 ppm,−
same,"CPE, H1N1 influenza virus treated with compound","[2]; 1,000 ppm",CTX
same,"CPE, H1N1 influenza virus treated with compound","[2]; 3,000 ppm",CTX
same,"CPE, compound only",MDCK cells [3]; 3 ppm,−
same,"CPE, compound only",MDCK cells [3]; 10 ppm,−
same,"CPE, compound only",MDCK cells [3]; 30 ppm,−
same,"CPE, compound only",MDCK cells [3]; 100 ppm,−
same,"CPE, compound only",MDCK cells [3]; 300 ppm,−
same,"CPE, compound only","MDCK cells [3]; 1,000 ppm",CTX
same,"CPE, compound only","MDCK cells [3]; 3,000 ppm",CTX
same,"concentration protecting RBC cells to sustain no agglutination (HA testing, H5N2)",[4],"above 1,000 ppm"
same,"HA, H5N2 avian influenza virus treated with compound",[4]; 3 ppm,+
same,"HA, H5N2 avian influenza virus treated with compound",[4]; 10 ppm,+
same,"HA, H5N2 avian influenza virus treated with compound",[4]; 30 ppm,+
same,"HA, H5N2 avian influenza virus treated with compound",[4]; 100 ppm,−
same,"HA, H5N2 avian influenza virus treated with compound",[4]; 300 ppm,−
same,"HA, H5N2 avian influenza virus treated with compound","[4]; 1,000 ppm",CTX
same,"HA, H5N2 avian influenza virus treated with compound","[4]; 3,000 ppm",CTX
same,"CPE, compound only",MDCK cells [5]; 3 ppm,−
same,"CPE, compound only",MDCK cells [5]; 10 ppm,−
same,"CPE, compound only",MDCK cells [5]; 30 ppm,−
same,"CPE, compound only",MDCK cells [5]; 100 ppm,−
same,"CPE, compound only",MDCK cells [5]; 300 ppm,−
same,"CPE, compound only","MDCK cells [5]; 1,000 ppm",CTX
same,"CPE, compound only","MDCK cells [5]; 3,000 ppm",CTX
same,concentration protecting cells against H5N1 influenza virus infection,[6],"above 1,000 ppm"
same,"CPE, H5N1 avian influenza virus treated with compound",[6]; 3 ppm,+
same,"CPE, H5N1 avian influenza virus treated with compound",[6]; 10 ppm,+
same,"CPE, H5N1 avian influenza virus treated with compound",[6]; 30 ppm,+
same,"CPE, H5N1 avian influenza virus treated with compound",[6]; 100 ppm,−
same,"CPE, H5N1 avian influenza virus treated with compound",[6]; 300 ppm,−
same,"CPE, H5N1 avian influenza virus treated with compound","[6]; 1,000 ppm",CTX
same,"CPE, H5N1 avian influenza virus treated with compound","[6]; 3,000 ppm",CTX
same,concentration protecting cells against H5N2 influenza virus infection,[7],"above 1,000 ppm"
same,"CPE, H5N2 avian influenza virus treated with compound",[7]; 3 ppm,+
same,"CPE, H5N2 avian influenza virus treated with compound",[7]; 10 ppm,+
same,"CPE, H5N2 avian influenza virus treated with compound",[7]; 30 ppm,+
same,"CPE, H5N2 avian influenza virus treated with compound",[7]; 100 ppm,−
same,"CPE, H5N2 avian influenza virus treated with compound",[7]; 300 ppm,−
same,"CPE, H5N2 avian influenza virus treated with compound","[7]; 1,000 ppm",CTX
same,"CPE, H5N2 avian influenza virus treated with compound","[7]; 3,000 ppm",CTX
same,viral morphology by AFM,[8],broken down and flattened
same,calculated RMS height of treated particles,[8]; 100 ppm,14.29±0.87 nm
same,calculated RMS height of treated particles,"[8]; 1,000 ppm",5.62±0.53 nm
same,"CPE, compound only",MDCX cells; 3 ppm,−
same,"CPE, compound only",MDCX cells; 10 ppm,−
same,"CPE, compound only",MDCX cells; 30 ppm,−
same,"CPE, compound only",MDCX cells; 100 ppm,−
same,"CPE, compound only",MDCX cells; 300 ppm,−
same,"CPE, compound only","MDCX cells; 1,000 ppm",CTX
same,"CPE, compound only","MDCX cells; 3,000 ppm",CTX
same,concentration at which cytotoxicity occurred,MDCX cells; dog,"exceeding 1,000 ppm"
same,concentration causing no cytotoxicity,MDCX cells; dog,less than 300 ppm
same,"CPE, compound only",MDCK cells [9]; 3 ppm,−
same,"CPE, compound only",MDCK cells [9]; 10 ppm,−
same,"CPE, compound only",MDCK cells [9]; 30 ppm,−
same,"CPE, compound only",MDCK cells [9]; 100 ppm,−
same,"CPE, compound only",MDCK cells [9]; 300 ppm,−
same,"CPE, compound only","MDCK cells [9]; 1,000 ppm",CTX
same,"CPE, compound only","MDCK cells [9]; 3,000 ppm",CTX
same,viral morphology by AFM,"[10]; 30 and 1,000 ppm, FIGS. 5B and 5C",broken down and flattened
same,maximum height of virus particles (AFM cursor profile),"[10]; 30 ppm, FIG. 5B′",~10.35 nm
same,calculated RMS height of treated particles,[10]; 30 ppm,10.49±0.52 nm
same,maximum height of virus particles (AFM cursor profile),"[10]; 1,000 ppm, FIG. 5C′",~8.41 nm
same,calculated RMS height of treated particles,"[10]; 1,000 ppm",8.35±0.63 nm
same,"concentration protecting RBC cells to sustain no agglutination (HA testing, H5N1)",[11],"above 1,000 ppm"
same,"HA, H5N1 avian influenza virus treated with compound",[11]; 3 ppm,+
same,"HA, H5N1 avian influenza virus treated with compound",[11]; 10 ppm,+
same,"HA, H5N1 avian influenza virus treated with compound",[11]; 30 ppm,+
same,"HA, H5N1 avian influenza virus treated with compound",[11]; 100 ppm,−
same,"HA, H5N1 avian influenza virus treated with compound",[11]; 300 ppm,−
same,"HA, H5N1 avian influenza virus treated with compound","[11]; 1,000 ppm",CTX
same,"HA, H5N1 avian influenza virus treated with compound","[11]; 3,000 ppm",CTX

# Reference: patent US8110605B2, “Compound for inactivating viruses and bacteria and method of making same” (priority 2009, dated 2012)
